In the NIST ThermoML archive (doi:10.1016/j.jct.2013.07.008):
± gives the expanded uncertainty stated by the source.

Columns and labels:
[1] = for mass density: 101.33 kPa, Buoyancy - hydrostatic balance; for mass density / surface tension liquid-gas: Liquid; for surface tension liquid-gas: Maximal bubble pressure; for Glass transition temperature: DTA
[2] = refractive index (Na D-line) (dimensionless); details: 101.33 kPa, Liquid, Standard Abbe refractometry

| SMILES | mass density ([1]; 288.15 K) | surface tension liquid-gas ([1]; 288.15 K) | mass density ([1]; 293.15 K) | surface tension liquid-gas ([1]; 293.15 K) | mass density ([1]; 303.15 K) | surface tension liquid-gas ([1]; 303.15 K) | mass density ([1]; 308.15 K) | surface tension liquid-gas ([1]; 308.15 K) | mass density ([1]; 313.15 K) | surface tension liquid-gas ([1]; 313.15 K) | mass density ([1]; 318.15 K) | surface tension liquid-gas ([1]; 318.15 K) | mass density ([1]; 323.15 K) | surface tension liquid-gas ([1]; 323.15 K) | mass density ([1]; 328.15 K) | surface tension liquid-gas ([1]; 328.15 K) | mass density ([1]; 333.15 K) | surface tension liquid-gas ([1]; 333.15 K) | Glass transition temperature [1] | refractive index ([2]; 288.15 K) | other results |
| --- | --- | --- | --- | --- | --- | --- | --- | --- | --- | --- | --- | --- | --- | --- | --- | --- | --- | --- | --- | --- | --- |
| CC(O)C(=O)[O-].CCn1cc[n+](C)c1 [1-ethyl-3-methylimidazolium lactate] | 1192.9 ± 1.2 kg/m3 | 49.5 ± 0.6 mN/m | 1189.8 ± 1.1 kg/m3 | 49.2 ± 0.6 mN/m | 1183.4 ± 1.1 kg/m3 | 48.4 ± 0.6 mN/m | 1180.1 ± 1.1 kg/m3 | 48 ± 0.6 mN/m | 1176.4 ± 1.1 kg/m3 | 47.7 ± 0.6 mN/m | 1173.4 ± 1.1 kg/m3 | 47.4 ± 0.6 mN/m | 1170.4 ± 1.1 kg/m3 | 47 ± 0.6 mN/m | 1167.1 ± 1.1 kg/m3 | 46.6 ± 0.6 mN/m | 1163.6 ± 1.1 kg/m3 | 46.3 ± 0.6 mN/m | -81.30 ± 2 °C | 1.5026 ± 0.0005 | refractive index ([2]; 293.15 K): 1.5014 ± 0.0005; refractive index ([2]; 303.15 K): 1.4987 ± 0.0005; refractive index ([2]; 308.15 K): 1.4977 ± 0.0005; refractive index ([2]; 313.15 K): 1.4961 ± 0.0005; refractive index ([2]; 318.15 K): 1.495 ± 0.0005; refractive index ([2]; 323.15 K): 1.4936 ± 0.0005; refractive index ([2]; 328.15 K): 1.4926 ± 0.0005; refractive index ([2]; 333.15 K): 1.4913 ± 0.0005 |
| CC(O)C(=O)[O-].CCCCCn1cc[n+](C)c1 [1-pentyl-3-methylimidazolium lactate] | 1112.6 ± 1 kg/m3 | 43.1 ± 0.5 mN/m | 1109 ± 1 kg/m3 | 42.7 ± 0.5 mN/m | 1102.7 ± 1 kg/m3 | 42 ± 0.5 mN/m | 1099.4 ± 1 kg/m3 | 41.5 ± 0.5 mN/m | 1095.3 ± 1 kg/m3 | 41.2 ± 0.5 mN/m | 1092.9 ± 1 kg/m3 | 40.9 ± 0.5 mN/m | 1089.9 ± 1 kg/m3 | 40.5 ± 0.5 mN/m | 1086.4 ± 1 kg/m3 | 40.1 ± 0.5 mN/m | 1083.3 ± 1 kg/m3 | 39.8 ± 0.5 mN/m | -78.20 ± 2 °C | 1.494 ± 0.0005 | refractive index ([2]; 293.15 K): 1.4928 ± 0.0005; refractive index ([2]; 303.15 K): 1.4901 ± 0.0005; refractive index ([2]; 308.15 K): 1.4891 ± 0.0005; refractive index ([2]; 313.15 K): 1.4875 ± 0.0005; refractive index ([2]; 318.15 K): 1.4864 ± 0.0005; refractive index ([2]; 323.15 K): 1.485 ± 0.0005; refractive index ([2]; 328.15 K): 1.4841 ± 0.0005; refractive index ([2]; 333.15 K): 1.4827 ± 0.0005 |
